Test results taken from patent publication US20220054494A1, “METHODS FOR TREATING BLADDER AND URETHRA DYSFUNCTION AND DISEASE” (University of Pittsburgh - Of the Commonwealth System of …, priority 2019, published 2022).
“Also recorded” adds a separate entry of the source.

Columns and labels:
aged rats = experiment: Voiding analysis in metabolic cages, aged rats; type: in vivo, rat
Description: Experimental design: Young (3 months of age) and aged (25 to 30 months of age) Fisher 344 rats were used in these experiments. Some of the aged Fisher 344 rats were treated with 8-AG (5 mg kg/day via drinking water) for 1 month.
Voiding analysis: Rats were placed in metabolic cages for 24 hr (once per week for the duration of the study). Voided urine was collected in cups attached to force displacement transducers (GRASS TECHNOLOGIES®, Warwick, R.I.) connected to a computer running WINDAQ™ data acquisition software (DATAQ™ Instruments Inc., Akron, Ohio). Data were averaged for 24 h, and voiding frequency, total voided volume, and volume per void were analyzed. Voiding frequency was calculated as the number of voiding events per hour during 24 h, and volume per void, which defines bladder capacity, was calculated as an average of the voids occurring during these periods.
Animals: Male and female Fisher 344 rats were employed (Charles River; Wilmington, Mass. and the NIA rodent colony). Some rats were young (3 months of age), some were aged (25-30 months of age), and others were aged and treated with oral 8-AG (5 mg/kg/day; 6 weeks). Under isoflurane anesthesia and using an aseptic technique, an incision was made into the lower abdomen and in the scapular area. Sterile PE50 tubing was threaded subcutaneously from the lower abdomen to the scapular area and connected to a one-channel vascular access button (Intech Laboratories, Plymouth Meeting, Pa.). In the abdomen, the tubing was inserted into the bladder and secured with a small purse-string suture. The incisions were closed, and the animals were allowed to recover for 7-10 days before further experimentation. Animals were divided into three groups. A control group of aged rats received daily infusions with 10 μM DEA-NONOate (SIGMA-ALDRICH®, St. Louis, Mo.) in sterile 0.9% saline. A second group received 100 μM 8-AG plus 10 μM DEA-NONOate in 0.9% saline, and a third group received 5 μM forodesine (SIGMA-ALDRICH®) plus 10 μM DEA-NONOate in 0.9% saline. Bladders were instilled via a catheter tether kit (Instech Laboratories) connected to a syringe pump for continuous infusion (rate 200 μl/min; 30 minutes/daily) for 3-6 weeks. The Institutional Animal Care and Use Committee approved all procedures. The investigation conforms to the Guide for the Care and Use of Laboratory Animals published by the US National Institutes of Health (NIH Publication No. 85-23, revised 1996).
Protocol 1: Young, aged, and 8-AG-treated aged rats were placed in metabolism cages for 24 hr once per week. The light cycle was from 7:00 AM to 7:00 PM, and food and water were provided ad libitum. Voided urine was collected in cups attached to force displacement transducers (GRASS TECHNOLOGIES®, Warwick, R.I.) that were connected to a computer running Windaq data acquisition software (DATAQ® Instruments I2nc., Akron, Ohio). Data were averaged for 24 h and analyzed for 12-h periods during the day (7:00 AM-7:00 PM) and night (7:00 PM-7:00 AM). Voiding frequency, total voided volume, and volume per void were analyzed. Voiding frequency was calculated as the number of voiding events per hour during 24 h and during the 12-h day and 12-h night periods. Volume per void, which defines bladder capacity, was calculated as an average of the voids occurring during these periods.
Voiding Analysis: Young, aged, and 8-AG-treated aged rats were placed in metabolic cages (24 hr; once per week) for the duration of the study. The light cycle was from 7:00 AM to 7:00 PM, and food and water were provided ad libitum. Voided urine was collected in cups attached to force displacement transducers (Grass Technologies, Warwick, R.I.) connected to a computer (Windaq data acquisition software DATAQ Instruments Inc., Akron, Ohio). Data were averaged for 24 h and analyzed for 12-h periods during the day (7:00 AM-7:00 PM) and night (7:00 PM-7:00 AM). Voiding frequency, total voided volume, and volume per void were analyzed. […]

Rac 1 = Rac 1 (Homo sapiens, UniProt P63000); settings: Jackson et al., J Am Heart Assoc 2018; cited from earlier work
[1] = aged Fischer 344 rats, oral 8-AG 5 mg/kg/day, 6 weeks
[2] = aged Fisher 344 rats, 8-AG 5 mg kg/day via drinking water, 1 month

With `Nc1nc2[nH]c(N)nc2c(=O)[nH]1` [8-AG, 8-Aminoguanine] the voided volume (aged rats; [1]) was “attenuates”, the voiding frequency (aged rats; [1]) was “attenuates” and the “bladder abnormalities (voided volume, voiding efficiency, voiding frequency)” value (aged rats; [2]) was “reversed”. For the same compound, the voided volume (aged rats; [2]) was “attenuates”, the voiding frequency (aged rats; [2]) was “attenuates” and the voiding frequency (aged rats; aged rats, intravesical 100 μM 8-AG plus 10 μM DEA-NONOate, daily infusion 3-6 weeks, vs control aged rats) was “decreased; also recorded: attenuates”. The “Rac 1 inhibition (mechanism of reduced potassium excretion)” value (Rac 1) was “inhibiting”.
